Values of other authors as cited in PMC8287861 (Frontiers in Microbiology, 2021).
In brackets after ≈: the same amount, converted by molar mass. Where two headings read alike, the source gives them in different places. Each block holds one compound with its values, some of them ahead of it.

Legend:
[1] = tested on: Enterobacterales producing ESBLs and carbapenemases; parameters: method as in Rubio-Aparicio et al., 2019; conditions: ref Rubio-Aparicio et al., 2019
Pseudomonas aeruginosa [2] = tested on: Pseudomonas aeruginosa; parameters: method as in Lomovskaya et al. (2021); conditions: panel reflecting current MIC distribution (N = 500); QPX7728 at 8 μg/ml; ref Lomovskaya et al. (2021)
Pseudomonas aeruginosa [3] = tested on: Pseudomonas aeruginosa; parameters: method as in Lomovskaya et al. (2021); conditions: ref Lomovskaya et al. (2021); for MIC50 / MIC90: challenge panel, QPX7728 at 8 μg/ml
β-lactamases = conditions: ref Hecker et al. (2020)
[4] = tested on: KPC-producing strains of Klebsiella pneumoniae and blaKPC mutants; parameters: method as in Nelson et al., 2019; conditions: ref Nelson et al., 2019

MIC50 ([1]; All Enterobacterales (N = 972)): 32 µg/mL (≈ 78 µM)
MIC90 ([1]; All Enterobacterales (N = 972)): > 64 µg/mL
MIC50 ([1]; CRE KPC (N = 292)): 16 µg/mL (≈ 39 µM)
MIC90 ([1]; CRE KPC (N = 292)): > 64 µg/mL
MIC50 ([1]; CRE MBL (N = 226)): >64/>64 μg/ml
MIC90 ([1]; CRE MBL (N = 226)): >64/>64 μg/ml
MIC50 ([1]; CRE OXA-48 (N = 47)): 64/>64 μg/ml
MIC90 ([1]; CRE OXA-48 (N = 47)): 64/>64 μg/ml
MIC50 ([1]; ESBLs, no CRE (N = 371)): 8 µg/mL (≈ 19.5 µM)
MIC90 ([1]; ESBLs, no CRE (N = 371)): > 64 µg/mL
MIC50 ([1]; Non-CP CRE): >64/>64 μg/ml
MIC90 ([1]; Non-CP CRE): >64/>64 μg/ml
Compound: Nc1nc(/C(=C/CC(=O)O)C(=O)N[C@@H]2C(=O)N3C(C(=O)O)=CCS[C@H]23)cs1 [Ceftibuten]

MIC50 (Pseudomonas aeruginosa [2]): 0.5 µg/mL (≈ 0.75 µM)
MIC90 (Pseudomonas aeruginosa [2]): 4 µg/mL (≈ 6 µM)
MIC50 (Pseudomonas aeruginosa [3]; All (N = 290)): 4 µg/mL (≈ 6 µM)
MIC90 (Pseudomonas aeruginosa [3]; All (N = 290)): >64 µg/mL
MIC50 (Pseudomonas aeruginosa [3]; MBL (N = 61)): >64 µg/mL
MIC90 (Pseudomonas aeruginosa [3]; MBL (N = 61)): >64 µg/mL
MIC50 (Pseudomonas aeruginosa [3]; No MBL (N = 229)): 2 µg/mL (≈ 3 µM)
MIC90 (Pseudomonas aeruginosa [3]; No MBL (N = 229)): >64 µg/mL
Compound: Cn1c(N)c(NC(=O)NCCN)c[n+]1CC1=C(C(=O)O)N2C(=O)[C@@H](NC(=O)/C(=N\OC(C)(C)C(=O)[O-])c3nsc(N)n3)[C@H]2SC1 [Ceftolozane, ceftolozane]

MIC50 (Pseudomonas aeruginosa [3]; All (N = 290)): 32 µg/mL (≈ 73.5 µM)
MIC90 (Pseudomonas aeruginosa [3]; All (N = 290)): >64 µg/mL
MIC50 (Pseudomonas aeruginosa [3]; MBL (N = 61)): 32 µg/mL (≈ 73.5 µM)
MIC90 (Pseudomonas aeruginosa [3]; MBL (N = 61)): >64 µg/mL
MIC50 (Pseudomonas aeruginosa [3]; No MBL (N = 229)): 32 µg/mL (≈ 73.5 µM)
MIC90 (Pseudomonas aeruginosa [3]; No MBL (N = 229)): >64 µg/mL
Compound: C[C@H]1[C@H](NC(=O)/C(=N\OC(C)(C)C(=O)O)c2csc(N)n2)C(=O)N1S(=O)(=O)O [Aztreonam, aztreonam]

More lines, now with the values behind:

Compound: CSCC(=O)N[C@H]1Cc2ccc(F)c(C(=O)O)c2OB1O [RPX7323]
β-lactamase inhibition (in words) (β-lactamases): capable of potently inhibiting serine enzymes from classes A-D

Compound: CO/N=C(\C(=O)N[C@@H]1C(=O)N2C(C(=O)[O-])=C(C[N+]3(C)CCCC3)CS[C@H]12)c1csc(N)n1 [Cefepime, cefepime]
MIC ([4]; KP1074, KPC-3, SHV-11, TEM-1/GD): >128 µg/mL
MIC ([4]; KP1099, KPC-2, SHV-11, SHV-12, CTX-M-14/GD): >128 µg/mL
MIC ([4]; KP1102, KPC-3, TEM-1, SHV-11/GD): >128 µg/mL
MIC ([4]; KP1246, KPC-3, SHV-12, SHV-11/FL): 128 µg/mL (≈ 266 µM)
MIC ([4]; KP1252, KPC-3, TEM-1, SHV-11/FL): >128 µg/mL
MIC ([4]; KP1317, KPC-3, TEM-1, SHV-11/GD): >128 µg/mL
MIC ([4]; KP1500, KPC-3, TEM-1, SHV-11, CTX-M-15 OXA-1 OXA-9/IS at −48): >128 µg/mL
MIC ([4]; KPM3191, KPC-3:: DDK duplication at aa#831 (KPC-29)): 64 µg/mL (≈ 133 µM)
MIC ([4]; KPM3192, KPC-3:: D179Y (KPC-31)): 32 µg/mL (≈ 66.6 µM)
MIC ([4]; KPM3200, KPC-3::duplication of EAVI (aa#278)): >128 µg/mL
MIC ([4]; KPM3205, KPC-3 ::duplication of KKDY (aa#273)): 128 µg/mL (≈ 266 µM)
MIC ([4]; KPM3210, KPC-2::D179N): 128 µg/mL (≈ 266 µM)
MIC ([4]; KPM3212, deletion of ELNSAI at aa#497): 128 µg/mL (≈ 266 µM)
MIC ([4]; KPM3213, KPC-2::D179Y (KPC-31), selected from KP1099): >128 µg/mL
MIC ([4]; KPM3214, KPC-2::D179A): 128 µg/mL (≈ 266 µM)
MIC ([4]; KPM3493, KPC-3::duplication of EL at aa#164 (KPC-25)): 32 µg/mL (≈ 66.6 µM)
MIC ([4]; KPM3494, KPC-3::R167S): 128 µg/mL (≈ 266 µM)
MIC ([4]; KPM3495, KPC-3::A175V): >128 µg/mL
MIC ([4]; KPM3511, KPC-3::P174Q): 64 µg/mL (≈ 133 µM)
MIC ([4]; KPM3512, KPC-3:: P174L): 16 µg/mL (≈ 33.3 µM)
MIC ([4]; KPM3517, KPC-3::D179Y (KPC-31)): >128 µg/mL
MIC ([4]; KPM3520, Both WT and mutant KPC-3::duplication of 8aa (aa#264–271)): >128 µg/mL
MIC ([4]; KPM3523, Both WT and mutant KPC-3:: deletion of EL (aa#241–242)): 128 µg/mL (≈ 266 µM)
MIC ([4]; KPM3546, KPC-3::R164H): >128 µg/mL
MIC50 (Pseudomonas aeruginosa [2]): 4 µg/mL (≈ 8.32 µM)
MIC90 (Pseudomonas aeruginosa [2]): 32 µg/mL (≈ 66.6 µM)
% of isolates shifted by QPX7728 at or below breakpoint (Pseudomonas aeruginosa [3]; challenge panel (N = 290), with QPX7728, 8 or 16 μg/ml for cefepime and piperacillin, respectively): 70.3%
MIC50 (Pseudomonas aeruginosa [3]; All (N = 290)): 32 µg/mL (≈ 66.6 µM)
MIC90 (Pseudomonas aeruginosa [3]; All (N = 290)): 64 µg/mL (≈ 133 µM)
MIC50 (Pseudomonas aeruginosa [3]; MBL (N = 61)): 64 µg/mL (≈ 133 µM)
MIC90 (Pseudomonas aeruginosa [3]; MBL (N = 61)): 64 µg/mL (≈ 133 µM)
MIC50 (Pseudomonas aeruginosa [3]; No MBL (N = 229)): 32 µg/mL (≈ 66.6 µM)
MIC90 (Pseudomonas aeruginosa [3]; No MBL (N = 229)): 64 µg/mL (≈ 133 µM)
